The values below come from article PMC4749168, “Potentiation of ΔF508- and G551D-CFTR-Mediated Cl^- Current by Novel Hydroxypyrazolines” (PLoS ONE, 2016).

Where “and” joins values, the source holds several entries; their conditions need not be identical. Identical values can stand only once. Entries after “also recorded” stand apart in the source; their conditions may differ.

One assay addresses T1, CFTR (Homo sapiens, UniProt P13569).
T1 construct: endogenous in cells; host or cells: primary cultures of normal human nasal epithelial cells (provided by Dr. Jaeyoung Choi), passage 2, air-liquid interface
The assay is described as follows: Short-circuit current in primary cultures of normal human nasal epithelial cells. It is filed as cell-based. As to conditions: 0.5 μM forskolin, amiloride pretreatment. Here is the method:
(§1) Snapwell inserts containing CFTR-expressing FRT and primary culture of human nasal epithelial cells were mounted in Ussing chambers (Physiologic Instruments, San Diego, CA). Forskolin, genistein, CP7q and CFTRinh-172 were added to the apical and basolateral bath solution. For FRT cells, the apical bath was filled with a half-Cl^- solution and the basolateral bath was filled with HCO3^—buffered solution, and the basolateral membrane was permeabilized with 250 μg/mL amphotericin B. For primary cultures of human nasal epithelial cells, symmetrical HCO3^—buffered solutions were used and ENaC was inhibited by pre-treatment with amiloride (100 μM). All cells were bathed for a 20 min stabilization period and aerated with 95% O2 / 5% CO2 at 37°C. Apical membrane current and short-circuit current were measured with an EVC4000 Multi-Channel V/I Clamp (World Precision Instruments, Sarasota, FL) and recorded using PowerLab 4/35 (AD Instruments, Castle Hill, Australia). Data were collected and analyzed with ADInstruments acquisition software Labchart Pro 7 software. The sampling rate was 4 Hz.

A further assay concerns the target T2, WT-CFTR (Homo sapiens, UniProt P13569).
T2 construct: expressed in transfected cells; host or cells: Fisher rat thyroid (FRT) cells, co-expressing halide sensor YFP-H148Q/I152L; provided by Dr. Alan Verkman
The assay is described as follows: Apical membrane current (Ussing chamber) in FRT cells expressing WT-CFTR. Type of assay: cell-based. Here is the method:
as §1

The test system of a further assay is intracellular cAMP. The assay is described as follows: Cyclic AMP assay in FRT cells. As to conditions: 10 μM CP7q. Type of assay: cell-based, rat. Here is the method: FRT cells grown on 12 well culture plates were washed 3 times with PBS at 37°C and then incubated in PBS at 37°C containing 100 μM IBMX for […] in the absence or presence of forskolin or CP7q. After 10 min incubation, the cells were washed with cold PBS and cytosolic cAMP was measured using a cAMP immunoassay kit (Parameter TM cAMP immunoassay kit, R&D Systems) according to the manufacturer's protocol.

For assay [1], the target named is T3, ΔF508-CFTR (Homo sapiens, UniProt P13569, DEL508-508). The assay is described as follows: Apical membrane current (Ussing chamber) in FRT cells expressing low temperature-rescued ΔF508-CFTR. Type of assay: cell-based. On the set-up: expressed in transfected cells; host or cells: Fisher rat thyroid (FRT) cells, co-expressing halide sensor YFP-H148Q/I152L; provided by Dr. Alan Verkman. Conditions: 20 μM forskolin. As to the method:
as §1

For assay [2], the target named is T3, ΔF508-CFTR. The assay is described as follows: Apical membrane current of VX-809-rescued ΔF508-CFTR in FRT cells. Type of assay: cell-based. On the set-up: expressed in transfected cells; host or cells: Fisher rat thyroid (FRT) cells, co-expressing halide sensor YFP-H148Q/I152L; provided by Dr. Alan Verkman. Conditions: 48 h, combined with 5 μM VX-809, 10 μM CP7q or 5 μM VX-770. As to the method:
as §1

The target of assay [3] is T3, ΔF508-CFTR. The assay is described as follows: Whole-cell patch-clamp in FRT cells expressing ΔF508-CFTR. Type of assay: cell-based. On the set-up: expressed in transfected cells; host or cells: Fisher rat thyroid (FRT) cells, co-expressing halide sensor YFP-H148Q/I152L; provided by Dr. Alan Verkman. As to the method:
Whole-cell patch-clamp recordings were performed on WT- or ΔF508-CFTR-expressing FRT cells. The bath solution contained (in mM): 140 NMDG-Cl, 1 CaCl2, 1 MgCl2, 10 glucose and 10 HEPES (pH 7.4). The pipette solution contained (in mM): 130 CsCl, 0.5 EGTA, 1 MgCl2, 1 Tris-ATP, and 10 HEPES (pH 7.2). Pipettes were pulled from borosilicate glass and had resistances of 3–5 MΩ after fire polishing. Seal resistances were between 3 and 10 GΩ. After establishing the whole-cell configuration, CFTR was activated by forskolin and/or CP7q. Whole-cell currents were elicited by applying hyperpolarizing and depolarizing voltage pulses from a holding potential of 0 mV to potentials between -80 mV and +80 mV in steps of 20 mV. Recordings were made at room temperature using an Axopatch-200B (Axon Instruments). Currents were digitized and analyzed using a Digidata 1440A converter (Axon Instruments), and pCLAMP 10.2 software (Molecular Devices, Sunnyvale, CA). Currents were low-pass filtered at 1 kHz and sampled at 5 kHz

T3 sequence (P13569 with tags, fused parts or gaps DEL508-508): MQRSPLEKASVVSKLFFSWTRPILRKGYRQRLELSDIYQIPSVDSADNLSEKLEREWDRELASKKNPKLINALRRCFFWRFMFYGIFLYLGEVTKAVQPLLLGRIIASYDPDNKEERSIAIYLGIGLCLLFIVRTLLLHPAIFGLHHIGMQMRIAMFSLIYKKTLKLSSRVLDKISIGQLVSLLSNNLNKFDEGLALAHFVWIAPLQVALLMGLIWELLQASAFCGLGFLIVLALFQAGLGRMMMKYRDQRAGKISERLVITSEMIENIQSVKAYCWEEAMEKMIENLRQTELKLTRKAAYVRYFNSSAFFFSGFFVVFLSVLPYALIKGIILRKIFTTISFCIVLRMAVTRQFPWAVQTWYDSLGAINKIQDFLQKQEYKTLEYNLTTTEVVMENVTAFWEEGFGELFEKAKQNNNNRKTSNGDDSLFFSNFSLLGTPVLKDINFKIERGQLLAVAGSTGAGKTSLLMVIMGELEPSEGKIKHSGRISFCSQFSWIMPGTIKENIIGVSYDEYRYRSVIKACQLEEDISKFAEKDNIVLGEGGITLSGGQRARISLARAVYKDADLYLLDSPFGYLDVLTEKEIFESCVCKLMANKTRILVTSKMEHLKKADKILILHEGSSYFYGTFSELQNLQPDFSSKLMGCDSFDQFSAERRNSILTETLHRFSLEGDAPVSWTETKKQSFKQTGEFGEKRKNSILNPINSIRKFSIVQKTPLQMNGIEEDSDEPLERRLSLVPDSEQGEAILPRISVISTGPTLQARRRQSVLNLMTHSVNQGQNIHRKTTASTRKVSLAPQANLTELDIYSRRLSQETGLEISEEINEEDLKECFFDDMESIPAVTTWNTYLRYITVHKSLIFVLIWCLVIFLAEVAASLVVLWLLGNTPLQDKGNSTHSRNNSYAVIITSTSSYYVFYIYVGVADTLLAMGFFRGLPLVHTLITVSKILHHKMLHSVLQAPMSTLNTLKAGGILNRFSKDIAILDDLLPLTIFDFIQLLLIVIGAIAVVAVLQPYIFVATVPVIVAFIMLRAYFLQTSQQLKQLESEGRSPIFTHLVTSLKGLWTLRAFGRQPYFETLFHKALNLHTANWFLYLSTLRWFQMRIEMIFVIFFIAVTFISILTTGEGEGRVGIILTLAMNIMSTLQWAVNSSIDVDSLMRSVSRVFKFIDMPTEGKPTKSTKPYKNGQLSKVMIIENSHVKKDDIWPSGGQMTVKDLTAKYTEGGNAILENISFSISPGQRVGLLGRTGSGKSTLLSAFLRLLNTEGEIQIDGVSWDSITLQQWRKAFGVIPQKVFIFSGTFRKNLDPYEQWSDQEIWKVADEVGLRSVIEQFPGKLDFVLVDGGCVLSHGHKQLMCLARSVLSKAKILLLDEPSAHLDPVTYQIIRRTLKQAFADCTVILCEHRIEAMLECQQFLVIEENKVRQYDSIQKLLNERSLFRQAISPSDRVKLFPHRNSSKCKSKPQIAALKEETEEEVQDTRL
T1 sequence (P13569 whole entry): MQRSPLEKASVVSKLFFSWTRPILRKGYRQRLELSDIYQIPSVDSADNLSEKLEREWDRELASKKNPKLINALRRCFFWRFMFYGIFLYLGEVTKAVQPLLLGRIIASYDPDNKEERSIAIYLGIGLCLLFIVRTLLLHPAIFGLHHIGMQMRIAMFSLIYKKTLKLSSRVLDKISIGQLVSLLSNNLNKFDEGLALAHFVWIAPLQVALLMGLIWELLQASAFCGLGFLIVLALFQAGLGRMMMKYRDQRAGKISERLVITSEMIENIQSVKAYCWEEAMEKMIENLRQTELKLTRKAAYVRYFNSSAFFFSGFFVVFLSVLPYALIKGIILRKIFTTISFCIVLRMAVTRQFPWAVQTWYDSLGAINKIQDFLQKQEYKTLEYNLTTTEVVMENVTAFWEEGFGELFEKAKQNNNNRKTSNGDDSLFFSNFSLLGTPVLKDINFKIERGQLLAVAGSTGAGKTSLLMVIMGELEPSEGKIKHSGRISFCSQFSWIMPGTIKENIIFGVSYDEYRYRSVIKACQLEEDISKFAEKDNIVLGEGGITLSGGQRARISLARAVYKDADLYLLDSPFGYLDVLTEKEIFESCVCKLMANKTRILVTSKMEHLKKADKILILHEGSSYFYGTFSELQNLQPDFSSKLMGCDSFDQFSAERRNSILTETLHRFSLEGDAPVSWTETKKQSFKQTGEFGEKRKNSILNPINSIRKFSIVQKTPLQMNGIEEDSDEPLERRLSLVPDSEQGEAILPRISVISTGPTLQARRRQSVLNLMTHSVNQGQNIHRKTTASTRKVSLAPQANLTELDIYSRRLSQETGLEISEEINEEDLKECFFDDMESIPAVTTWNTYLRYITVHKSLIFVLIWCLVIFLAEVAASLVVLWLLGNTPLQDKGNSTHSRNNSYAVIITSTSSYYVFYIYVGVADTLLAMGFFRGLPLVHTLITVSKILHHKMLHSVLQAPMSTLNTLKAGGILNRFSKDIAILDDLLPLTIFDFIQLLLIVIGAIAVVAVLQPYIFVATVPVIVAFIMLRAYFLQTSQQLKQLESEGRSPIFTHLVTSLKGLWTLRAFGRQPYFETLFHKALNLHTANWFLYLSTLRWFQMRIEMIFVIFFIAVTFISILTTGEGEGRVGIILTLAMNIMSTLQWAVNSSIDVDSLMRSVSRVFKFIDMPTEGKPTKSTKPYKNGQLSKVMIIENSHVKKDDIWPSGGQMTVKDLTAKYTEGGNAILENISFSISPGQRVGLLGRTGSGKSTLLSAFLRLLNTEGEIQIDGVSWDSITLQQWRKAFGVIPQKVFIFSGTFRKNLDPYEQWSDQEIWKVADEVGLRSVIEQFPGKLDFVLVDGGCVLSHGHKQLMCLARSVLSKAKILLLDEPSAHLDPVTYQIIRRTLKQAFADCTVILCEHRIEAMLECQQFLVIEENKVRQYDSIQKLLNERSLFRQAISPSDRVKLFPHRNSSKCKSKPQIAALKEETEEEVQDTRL

Consider `COc1ccc(C2CC(c3ccc(O)cc3O)=NN2c2ccc(S(N)(=O)=O)cc2)c(OC)c1` (stereo not drawn) [Compound 7q, 4-[3-(2,4-dihydroxyphenyl)-5-(2,4-dimethoxyphenyl)-4,5-dihydro-1H-pyrazol-1-yl] benzenesulfonamide], for which the “Potentiation of CFTR Cl- current (short-circuit current)” value at CFTR was “remarkably potentiated”. Moreover, the EC50 (commonly the midpoint of the concentration-response curve) at WT-CFTR (FRT-WT-CFTR cells, 0.1 μM forskolin) was 0.88 µM and ~0.88 µM; on ΔF508-CFTR [1] (FRT cells, 27°C rescue 24 h), 4.45 µM and ~4.45 µM. The “Maximum efficacy of CFTR potentiation compared with genistein” value at WT-CFTR (WT-CFTR stimulated by 0.1 μM forskolin) is “significantly higher than that of genistein”. The “Effect on intracellular cAMP level” value with intracellular cAMP was “did not alter; also recorded: did not affect”. The “Efficacy of ΔF508-CFTR potentiation compared with genistein” value on ΔF508-CFTR [1] (genistein 50 μM) is “slightly higher than that of genistein”. For the same molecule, the “Effect on apical membrane current of VX-809-rescued ΔF508-CFTR” value on ΔF508-CFTR [2] was “strongly increased”. The “Potentiation of whole-cell ΔF508-CFTR Cl- current” value at ΔF508-CFTR [3] (10 μM forskolin, 10 μM CP7q, 27°C rescue) is given as “significantly potentiated”. The “Activation of ΔF508-CFTR without forskolin stimulation” value on ΔF508-CFTR [3] (whole cell patch-clamp, no forskolin) was “did not activate”.
